From patent US20250223306A1, “TEAD INHIBITORS AND METHODS OF USE” (Sporos BioDiscovery, Inc., priority 2022, published 2025)

What was measured:
[1] = system: NCI-H226 cells; test: Proliferation and cell viability, CellTiter-Glo 2.0 (CTG) assay; type: cell-based; details: for IC50: H226-responder cell line, 144 hrs; for EC50: NCI-H226, H226-responder cell line (Table 5)
Procedure: Cell proliferation of a TEAD dependent NF2-null mesothelioma cell line, NCI-H226, and a TEAD-non-dependent mesothelioma cell line, NCI-H28 was assayed using two different protocols: • a) CellTiter-Glo 2.0 (Promega #G9243). The effect of the TEAD inhibitors disclosed herein on cell proliferation was determined in TEAD1-genetically dependent cell line NCI-H226 (responder cell line) and TEAD-independent cell lines (NCI-H23, HEK293T), as non-responder, negative control. Cells were seeded in 96-well plates (Thermo Scientific #167008) in growth media (RPMI-1640, Gibco #61870-010) for NCI-H226 and NCI-H23 or DMEM (Gibco #31966-021, HEK293T) with 10% Heat Inactivated Fetal Bovine Serum (Gibco 10500-064) at 800 (NCI-H226 and HEK-293T) or 2000 (NCI-H23) cells per well at 37° C., 5% CO2, humidified incubator; 24 hours later, fresh growth media containing test compound or DMSO vehicle was added and incubated with the cells for 144 hrs. TEAD inhibitor stocks were made at a 1000× fold excess in DMSO, and a dose response test compound dose range of 10,000 to 0.1 nM was used. Each treatment was carried out in triplicate. After 144 hrs of treatment, relative cell viability numbers were determined using the CellTiter-Glo 2.0 assay following the manufacturer's instructions. Test plates and CellTiter-Glo 2.0 reagent were allowed to equilibrate to room temperature. CellTiter-Glo 2.0 reagent was added at 1:1 reagent to media ratio to the 96-well cell plates, plates were placed on a plate shaker for 2 minutes and then incubated at room temperature for a further 10 minutes to allow complete cell lysis to occur. The mix was then transferred to white, 96-well luminometer assay plates (Greiner Bio One #655075). Luminescence was quantified using a CLARIOStar Plus multi-mode plate reader (BMG Labtech) in luminescence detection mode with the recommended settings (ultra-Glo pre-set: emission 545-50 nm with autofocus and enhanced dynamic range on). Relative cell density was expressed as a function of inhibitor concentration, with respect to DMSO-only control wells. Data where plotted using GraphPad Prism and IC50 values for the biological effect were calculated using the EC50 non-linear fit function using a sigmoidal, 4-parameter logistic, least squares fit with no constraints. • b) Cell Titer One (Promega, #G3582). The effect of the TEAD inhibitors disclosed herein on cell proliferation was also determined using the Promega Substrate Cell Titer Aqueous One Solution Reagent. The TEAD inhibitors were evaluated for the effects on cell proliferation responder (H226) and non-responder negative control cancer cell lines (CAMA1, H28), as well as non-transformed normal human cells (HUVEC, NHDF). Dissociated cells were resuspend in media (depending on cell line, either in DMEM, RPMI, or EMEM all with 10% FBS, with gentamicin as an antibiotic). Cells were seeded at 100 μL/well at 750 cells per well in 96-well plates and allowed to settle and attach. After an incubation of 24 hrs (37° C., 5% CO2, humidified incubator), 100 μL of test compound-containing media was added. A dilution series of 2000× concentrated stock of test compounds was prepared in DMSO, for final concentrations from 0.1 to 10,000 nM. After addition of test compound-containing media, cells were incubated for 6 days at 37° C., 5% CO2, humidified incubators). To measure cell density, 20 μL of Promega Substrate Cell Titer 96 Aqueous One Solution Reagent (Promega, #G3582) to each well was added according to the manufacturer's instructions. Plates were incubated at 37° C. for usually 3-8 hrs, to reach in the control cells (without compound) an OD of 1.5 at 490 nm. The OD was measured using Vmax [Molecular Devices] spectrophotometer plate reader. Media only-wells were used as background controls and cell densities normalized to DMSO vehicle control. ECs were taken as the concentration achieving 50% of maximal growth inhibition.

[2] = system: MSTO-211H cells; test: MSTO-211H proliferation and cell viability assay (CTG); type: cell-based; details: Homo sapiens, MSTO-211H cell line, 144 hours
Procedure: MSTO-211H cells were trypsinised, counted and plated at the specified cell density in 200 μl of growth media in 96 well flat bottom tissue culture treated plates. The plated cells were incubated overnight at 37° C., 5% CO2 before being treated with compounds in triplicate for each assay point. 50 μl of the serially diluted compound was added to each well giving a final DMSO concentration of 0.5% per well and a total volume of 250 μl per well. The treated cells were incubated for 144 hours (6 days) at 37° C., 5% CO2. Following compound treatment, the remaining viable cells were detected using the Promega CellTiter-Glo 2.0 assay as follows: 150 μl of media was removed from each of the wells to be assayed and 100 μl of room temperature CellTiter-Glo 2.0 reagent was added. The plate was placed on an orbital shaker at 500 rpm at room temperature for 2 minutes, and then incubated without shaking for a further 10 minutes at room temperature. 150 μl of cell lysate was removed from each well and dispensed into a single well of a white opaque 96 well plate. Luminescence at 545 nm is read using a BMG CLARIOstar plate reader. The luminescent signal was directly proportional to number of viable cells, the percent of viable cells relative to the DMSO control was then calculated for each assay point. Percent viability relative to DMSO control was plotted against compound concentration and a curve fitted with non-linear regression in GraphPad Prism software. IC50 values were calculated using GraphPad Prism software as follows: For Relative IC50 values a non-constrained four-parameter logistic curve fit was used (Sigmoidal, 4PL, X is concentration). For Absolute IC50 values the baseline was constrained to Y=0 (Absolute IC50, X is concentration). Area Under the Curve (AUC): Prism computes area-under-the-curve by the trapezoidal method. The analysis sees a fitted curve as simply a series of connected XY points. Prism simply computes the area under the “curve” defined by connecting the points by straight lines. The units of the AUC are the units of the Y axis times units of the X axis.

Compound	IC50 ([1]; Homo sapiens, NCI-H226, 144 h)	EC50 ([1]; Homo sapiens)	EC50 [2]	IC50 [1]
C[C@H](NC(=O)c1cnc2c(C3=CC[C@@H](C(F)(F)F)CC3)cccc2c1)c1ncco1 (single isomer, unassigned) [Compound 19, N-(1-(oxazol-2-yl)ethyl)-8-(4-(trifluoromethyl)cyclohex-1-en-1-yl)quinoline-3-carboxamide]	< 200 nM	< 200 nM	< 200 nM	–
C[C@H](NC(=O)c1cnc2c(C3=CC[C@@H](C(F)(F)F)CC3)cccc2c1)c1ncco1 (single isomer, unassigned) [Compound 20, N-(1-(oxazol-2-yl)ethyl)-8-(4-(trifluoromethyl)cyclohex-1-en-1-yl)quinoline-3-carboxamide]	–	–	–	< 200 nM
FC(F)(F)c1ccc(CN2CCC(C3CC(Br)=NO3)CC2)cc1 (stereo not drawn) [Compound 1-2, reference compound]	–	< 200 nM	< 200 nM	–
C=CC(=O)Nc1ccc(C)c(Oc2ccc(Cl)cc2)c1 [Compound 1-3, reference compound]	–	< 200 nM	< 200 nM	–
C[C@H](NC(=O)c1cnc2c(C3=CCC(C(F)(F)F)CC3)cccc2c1)c1ccccn1 (stereo partly drawn) [Compound 2, N—((S)-1-(pyridin-2-yl)ethyl)-8-(4-(trifluoromethyl)cyclohex-1-en-1-yl)quinoline-3-carboxamide]	< 200 nM	–	–	–
C[C@H](CO)NC(=O)c1cnc2c(C3=CCC(C(F)(F)F)CC3)cccc2c1 (stereo partly drawn) [Compound 7, N—((R)-1-hydroxypropan-2-yl)-8-(4-(trifluoromethyl)cyclohex-1-en-1-yl)quinoline-3-carboxamide]	< 200 nM	< 200 nM	< 200 nM	–
O=C(NCc1ncco1)c1cnc2c(C3=CCC(C(F)(F)F)CC3)cccc2c1 (stereo not drawn) [Compound 11, N-(oxazol-2-ylmethyl)-8-(4-(trifluoromethyl)cyclohex-1-en-1-yl)quinoline-3-carboxamide]	< 200 nM	< 200 nM	< 200 nM	–
O=C(NCc1ccn[nH]1)c1cnc2c(C3=CCC(C(F)(F)F)CC3)cccc2c1 (stereo not drawn) [Compound 47, N-((1H-pyrazol-5-yl)methyl)-8-(4-(trifluoromethyl)cyclohex-1-en-1-yl)quinoline-3-carboxamide]	–	< 200 nM	< 200 nM	–
COC[C@H](CO)NC(=O)c1cnc2c(C3=CCC(C(F)(F)F)CC3)cccc2c1 (stereo partly drawn) [Compound 62, N—((S)-1-hydroxy-3-methoxypropan-2-yl)-8-(4-(trifluoromethyl)cyclohex-1-en-1-yl)quinoline-3-carboxamide]	–	< 200 nM	< 200 nM	–
COc1cc(C2=CCC(C(F)(F)F)CC2)c2ncc(C(=O)N[C@H](C)c3ncco3)cc2c1 (stereo partly drawn) [Compound 109, 6-methoxy-N—((R)-1-(oxazol-2-yl)ethyl)-8-(4-(trifluoromethyl)cyclohex-1-en-1-yl)quinoline-3-carboxamide]	–	< 200 nM	< 200 nM	–
COc1cc(C2=CCC(C(F)(F)F)CC2)c2ncc(C(=O)N[C@H](C)CO)cc2c1 (stereo partly drawn) [Compound 110, N—((R)-1-hydroxypropan-2-yl)-6-methoxy-8-(4-(trifluoromethyl)cyclohex-1-en-1-yl)quinoline-3-carboxamide]	–	< 200 nM	< 200 nM	–
C[C@H](CO)NC(=O)c1cnc2c(C3=CCC4(CC3)CC(F)(F)C4)cccc2c1 [Compound 165, (R)-8-(2,2-difluorospiro[3.5]non-6-en-7-yl)-N-(1-hydroxypropan-2-yl)quinoline-3-carboxamide]	–	< 200 nM	< 200 nM	–
C[C@@H](NC(=O)c1cnc2c(C3=CCC4(CC3)CC4)cccc2c1)c1ncco1 [Compound 166, (R)—N-(1-(oxazol-2-yl)ethyl)-8-(spiro[2.5]oct-5-en-6-yl)quinoline-3-carboxamide]	–	< 200 nM	< 200 nM	–
